Test results reported in patent publication US11292807B2 (OCEANS LTD., priority 2015, dated 2022).
Read-outs that look alike come from different tables or passages of the source.

What was measured:
[1] = tested on: MDA-MB; details: MDA-MB
[2] = tested on: MDA-MB; experiment: cells; details: Homo sapiens, read-out: Average cell viability, MDA-MB
[3] = in vitro; details: human, Average cell viability
Protocol: (§1) Stock solutions of the extracts were prepared in dimethylsulfoxide (DMSO) at 10 mg/mL and stored in 200 μl aliquots at −20° C. until analysis. This preparation ensured that the DMSO delivered to cells in culture never exceeded 1%.
(§2) Prepared extracts were assessed following chronic exposure conditions in which cells were seeded at 2×10^3 cells/well (96 well-plate) and incubated with test compounds for 72 h. Each compound was evaluated over a range of concentrations (0, 10, 25, 50 or 100 μg/ml). Cell proliferation was initially assessed using a standard colorimetric indicator of metabolic activity (CIMA) assay. In this assay, tetrazole reduction was evaluated as a measure of metabolic function that evaluates mitochondrial activity to determine the extent of cell proliferation within a culture. This assay is based on the reduction of yellow tetrazolium salt to purple formazan by mitochondrial reductases enzyme in viable cells, resulting in a color changed that confers a change in absorbance.

[4] = tested on: PC3; experiment: CIMA assay, cell viability, PC3; details: for Fold change in viability AVG: PC3
[5] = tested on: U373 (glioblastoma-astrocytoma); experiment: CIMA assay, cell viability, U373; details: for Fold change in viability AVG: U373
Protocol: as §1, §2

[6] = tested on: SKOV3 (ovarian adenocarcinoma); experiment: CIMA assay, cell viability, SKOV3; details: for Fold change in viability AVG: SKOV
[7] = tested on: THP-1 (acute monocytic leukemia); experiment: CIMA assay, cell viability, THP-1; details: for Fold change in viability AVG: THP-1
Protocol: as §1, §2

[8] = tested on: CCD1079SK (fibroblast, noncancerous but proliferating); experiment: CIMA assay, cell viability, CCD1079SK; details: CCD
Protocol: as §1, §2

[9] = tested on: A549 (lung carcinoma); experiment: CIMA assay (colorimetric indicator of metabolic activity), cell viability, A549; details: for Fold change in viability AVG: A549
Protocol: as §1, §2

## CC/C=C\C/C=C\C/C=C\CCCCCCCC(=O)O [Compound 19, α-linolenic acid]
[1]; sample at 1 ug/mL
  MDA-MB AVG: 1.17
[1]; sample at 10 ug/mL
  MDA-MB AVG: 1.18
[1]; sample at 50 ug/mL
  MDA-MB AVG: 0.88
[1]; sample at 100 ug/mL
  MDA-MB AVG: 0.26
[1]; 1 ug/mL
  Fold change in viability AVG: 1.17
[1]; 10 ug/mL
  Fold change in viability AVG: 1.18
[1]; 50 ug/mL
  Fold change in viability AVG: 0.88
[1]; 100 ug/mL
  Fold change in viability AVG: 0.26
[2]; 1 ug/mL
  viability at 1 µg/mL: 108%
[2]; 10 ug/mL
  viability at 10 µg/mL: 108%
[2]; 50 ug/mL
  viability at 50 µg/mL: 81%
[2]; 100 ug/mL
  viability at 100 µg/mL: 24%
[3]
  viability at 72 h, 1 ug/mL: 109%
  viability at 72 h, 10 ug/mL: 105%
  viability at 72 h, 50 ug/mL: 77%
  viability at 72 h, 100 ug/mL: 21%
[4]; Homo sapiens, PC-3, read-out: Average cell viability, PC3, 1 ug/mL
  viability at 1 µg/mL: 105%
[4]; Homo sapiens, PC-3, read-out: Average cell viability, PC3, 10 ug/mL
  viability at 10 µg/mL: 103%
[4]; Homo sapiens, PC-3, read-out: Average cell viability, PC3, 50 ug/mL
  viability at 50 µg/mL: 88%
[4]; Homo sapiens, PC-3, read-out: Average cell viability, PC3, 100 ug/mL
  viability at 100 µg/mL: 11%
[4]; PC3, sample at 1 ug/mL
  PC3 AVG: 1.09
[4]; PC3, sample at 10 ug/mL
  PC3 AVG: 1.07
[4]; PC3, sample at 50 ug/mL
  PC3 AVG: 0.91
[4]; PC3, sample at 100 ug/mL
  PC3 AVG: 0.12
[4]; 1 ug/mL
  Fold change in viability AVG: 1.09
[4]; 10 ug/mL
  Fold change in viability AVG: 1.07
[4]; 50 ug/mL
  Fold change in viability AVG: 0.91
[4]; 100 ug/mL
  Fold change in viability AVG: 0.12
[5]; Homo sapiens, U373 MG, read-out: Average cell viability, U373, 1 ug/mL
  viability at 1 µg/mL: 116%
[5]; Homo sapiens, U373 MG, read-out: Average cell viability, U373, 10 ug/mL
  viability at 10 µg/mL: 108%
[5]; Homo sapiens, U373 MG, read-out: Average cell viability, U373, 50 ug/mL
  viability at 50 µg/mL: 57%
[5]; Homo sapiens, U373 MG, read-out: Average cell viability, U373, 100 ug/mL
  viability at 100 µg/mL: 10%
[5]; U373, sample at 1 ug/mL
  U373 AVG: 1.18
[5]; U373, sample at 10 ug/mL
  U373 AVG: 1.10
[5]; U373, sample at 50 ug/mL
  U373 AVG: 0.58
[5]; U373, sample at 100 ug/mL
  U373 AVG: 0.10
[5]; 1 ug/mL
  Fold change in viability AVG: 1.18
[5]; 10 ug/mL
  Fold change in viability AVG: 1.10
[5]; 50 ug/mL
  Fold change in viability AVG: 0.58
[5]; 100 ug/mL
  Fold change in viability AVG: 0.10
[6]; Homo sapiens, SK-OV-3, read-out: Average cell viability, SKOV, 1 ug/mL
  viability at 1 µg/mL: 117%
[6]; Homo sapiens, SK-OV-3, read-out: Average cell viability, SKOV, 10 ug/mL
  viability at 10 µg/mL: 111%
[6]; Homo sapiens, SK-OV-3, read-out: Average cell viability, SKOV, 50 ug/mL
  viability at 50 µg/mL: 101%
[6]; Homo sapiens, SK-OV-3, read-out: Average cell viability, SKOV, 100 ug/mL
  viability at 100 µg/mL: 83%
[6]; 1 ug/mL
  Fold change in viability AVG: 1.26
[6]; 10 ug/mL
  Fold change in viability AVG: 1.20
[6]; 50 ug/mL
  Fold change in viability AVG: 1.09
[6]; 100 ug/mL
  Fold change in viability AVG: 0.90
[7]; Homo sapiens, THP-1, read-out: Average cell viability, THP-1, 1 ug/mL
  viability at 1 µg/mL: 102%
[7]; Homo sapiens, THP-1, read-out: Average cell viability, THP-1, 10 ug/mL
  viability at 10 µg/mL: 99%
[7]; Homo sapiens, THP-1, read-out: Average cell viability, THP-1, 50 ug/mL
  viability at 50 µg/mL: 72%
[7]; Homo sapiens, THP-1, read-out: Average cell viability, THP-1, 100 ug/mL
  viability at 100 µg/mL: 31%
[7]; THP-1, sample at 1 ug/mL
  THP-1 AVG: 1.16
[7]; THP-1, sample at 10 ug/mL
  THP-1 AVG: 1.12
[7]; THP-1, sample at 50 ug/mL
  THP-1 AVG: 0.82
[7]; THP-1, sample at 100 ug/mL
  THP-1 AVG: 0.35
[7]; 1 ug/mL
  Fold change in viability AVG: 1.16
[7]; 10 ug/mL
  Fold change in viability AVG: 1.12
[7]; 50 ug/mL
  Fold change in viability AVG: 0.82
[7]; 100 ug/mL
  Fold change in viability AVG: 0.35
[8]; 1 ug/mL
  Fold change in viability AVG: 1.20
[8]; 10 ug/mL
  Fold change in viability AVG: 1.16
[8]; 50 ug/mL
  Fold change in viability AVG: 0.85
[8]; 100 ug/mL
  Fold change in viability AVG: 0.23
[9]; A549, sample at 1 ug/mL
  A549 AVG: 1.16
[9]; A549, sample at 10 ug/mL
  A549 AVG: 1.16
[9]; A549, sample at 50 ug/mL
  A549 AVG: 1.02
[9]; A549, sample at 100 ug/mL
  A549 AVG: 0.67
[9]; 1 ug/mL
  Fold change in viability AVG: 1.16
[9]; 10 ug/mL
  Fold change in viability AVG: 1.16
[9]; 50 ug/mL
  Fold change in viability AVG: 1.02
[9]; 100 ug/mL
  Fold change in viability AVG: 0.67
[9]; Homo sapiens, A549, read-out: Average cell viability, A549, 1 ug/mL
  viability at 1 µg/mL: 99%
[9]; Homo sapiens, A549, read-out: Average cell viability, A549, 10 ug/mL
  viability at 10 µg/mL: 100%
[9]; Homo sapiens, A549, read-out: Average cell viability, A549, 50 ug/mL
  viability at 50 µg/mL: 88%
[9]; Homo sapiens, A549, read-out: Average cell viability, A549, 100 ug/mL
  viability at 100 µg/mL: 57%
